{
  "source": "patent US20230218573A1",
  "about": "“INDOLE COMPOUNDS FOR THE TREATMENT OF NEURODEGENERATIVE DISEASES” (GALYAN BIO, INC., priority 2020, published 2023)",
  "key": {"[1]": {"assay": "Pharmacokinetics, plasma and brain concentration by UHPLC-TOF", "type": "in vivo, mice", "experimental": "Compound 22 is an analog of Compound 7. […] Compound 22 pharmacokinetic properties was measured in three male CD1 mice at several timepoints. Compound 22 was dissolved in 10% DMSO, 10%, cremaphor, and 80% saline. The tested dose was 33.3 mg/kg body weight. Brain tissue was homogenized and protein precipitated with acetonitrile. […] As such, Compound 22 was selected for testing in an animal model of HD the R6/2 model. As described below, Compound 22 and its analogs were further tested for their effects on striatal cell viability and effects of mHTT levels."}, "STHdh 7/7 striatal cells": {"tested_on": "STHdh 7/7 striatal cells", "assay": "Cell viability of heat shocked STHdh 7/7 striatal cells", "type": "cell-based, mouse", "conditions": "Mus musculus, 48 hours treatment, read-out: Cell Viability striatal cells 3h heat shocked", "experimental": "RESULTS - Table 7b summarizes the effect of the compounds on cell viability. STHdh 7/7 were heat shocked for 3 hours and treated for 48 hours with small molecule compounds. Table 2 lists the cell viability in striatal cells after 48 hours.\nEffect of Compound 22 on Cell Viability of Wildtype Striatal Neurons - STHdh 7/7 cells are striatal cells that express wildtype huntingtin. These cells were cultured in the same conditions as described above for STHdh 111/111. The neurons were first heat shocked for 3 hours at 41° C. as described above. After 48 hours of treatment with the small molecule Compounds, cell viability was determined using the method described above. The “buffer” control is represents cells treated with a buffer only, without any compounds added. Some of the compounds show higher cell viability in comparison to control heat shocked STHdh 7/7 neurons with buffer and no treatment (FIG. 9)."}, "LC3 (autophagic flux)": {"tested_on": "LC3 (autophagic flux)", "assay": "Autophagic flux and LC3 stained area in STHdh 111/111 cells", "type": "cell-based, mouse", "experimental": "Staining - Cells were permeabilized with 0.3% Triton X-100 in 4° C. PBS (pH 7.4 from ThermoFisher) for 10 minutes. Then the cells were washed two times with 4° C. PBS. Subsequently, cells are blocked with 3% NGS (normal goat serum from Thermo Fisher) in 4° C. PBS for 1 hour. Cells were incubated with primary antibodies in blocking buffer (PBS, 3% NGS, 0.02% NaN3) over night at 4° C. Primary antibodies were mouse antipolyglutamine monoclonal antibody 3B5H10 (Sigma-Aldrich) at 1:250 dilution and Guinea Pig anti-MAP2 polyclonal antibody (Synaptic Systems) at 1:500 dilution. […]\nFluorescence Imaging - Imaging sessions were performed on a confocal microscope system (Carl Zeiss Microscopy) equipped with a dual spinning disk unit (Yokogawa). […] The fluorescence images obtained of the immunofluorescence labelled tissue sections were quantified with the help of the “Image Processing and Analysis in Java” or short ImageJ software distributed under the GNU General Public License by the NIH (Rueden, C.T. et al., BMC Bioinformatics. 2017 Nov 29;18(1):529), i.e. the edition used was the Fiji distribution (Schindelin, J. et al., Nature methods. 2012 Jun 28;9(7):676-82). […]\nAutophagic flux was calculated as the area stained with LC3 antibody per cell in STHdh 111/111 with autophagy inhibitor NH4Cl minus area stained with LC3 antibody per cell in STHdh 111/111 without the autophagy inhibitor NH4Cl."}, "Olig2": {"tested_on": "Olig2", "assay": "Nanostring gene expression in STHdh 111/111 cells: Olig2", "type": "cell-based, mouse", "conditions": "treated STHdh 111/111 (Q111-10), 48 h; in comparison to untreated STHdh 111/111", "experimental": "(§1) Gene expression of certain transcripts of interest were measured using Nanostring Technology. […] Some STHdh 7/7 and STHdh 111/111 cell samples were not heat shocked and some wells were treated with Compound 22 at the indicated concentration on for 48 hours (Table 12). Some STHdh 7/7 and STHdh 111/111 cell samples were heat shocked for 3 hours some wells were treated with Compound 22 at the indicated concentration on for 48 hours (Table 13). Cells are washed with PBS, trypsinised, and gathered in a 15 ml falcon tube. After a short spin down for 3 minutes at 300 g, the cell pellet was washed with PBS once, before it was frozen down in liquid nitrogen. RNA was extracted with a standard protocol. The nCounter® Mouse Neuropathology Panel (Nanostring, Seattle) was used for gene expression analysis according to the manufacturer’s protocols."}, "NGFR": {"tested_on": "NGFR", "assay": "Nanostring gene expression in STHdh 111/111 cells: NGFR", "type": "cell-based, mouse", "conditions": "treated STHdh 111/111 (Q111-10), 48 h; in comparison to untreated STHdh 111/111", "experimental": "as §1"}, "[2]": {"assay": "Microsomal stability in humans", "type": "in vitro ADME", "conditions": "humans versus mice"}, "mHTT": {"biological_target": "mHTT (Mus musculus, UniProt P42859, DEL28-30/G47A/INS49LLPQPQPP/INS60VA/L56P/P40L)", "sequence (P42859 with tags, fused parts or gaps DEL28-30/P40L/G47A/INS49LLPQPQPP/L56P/INS60VA)": "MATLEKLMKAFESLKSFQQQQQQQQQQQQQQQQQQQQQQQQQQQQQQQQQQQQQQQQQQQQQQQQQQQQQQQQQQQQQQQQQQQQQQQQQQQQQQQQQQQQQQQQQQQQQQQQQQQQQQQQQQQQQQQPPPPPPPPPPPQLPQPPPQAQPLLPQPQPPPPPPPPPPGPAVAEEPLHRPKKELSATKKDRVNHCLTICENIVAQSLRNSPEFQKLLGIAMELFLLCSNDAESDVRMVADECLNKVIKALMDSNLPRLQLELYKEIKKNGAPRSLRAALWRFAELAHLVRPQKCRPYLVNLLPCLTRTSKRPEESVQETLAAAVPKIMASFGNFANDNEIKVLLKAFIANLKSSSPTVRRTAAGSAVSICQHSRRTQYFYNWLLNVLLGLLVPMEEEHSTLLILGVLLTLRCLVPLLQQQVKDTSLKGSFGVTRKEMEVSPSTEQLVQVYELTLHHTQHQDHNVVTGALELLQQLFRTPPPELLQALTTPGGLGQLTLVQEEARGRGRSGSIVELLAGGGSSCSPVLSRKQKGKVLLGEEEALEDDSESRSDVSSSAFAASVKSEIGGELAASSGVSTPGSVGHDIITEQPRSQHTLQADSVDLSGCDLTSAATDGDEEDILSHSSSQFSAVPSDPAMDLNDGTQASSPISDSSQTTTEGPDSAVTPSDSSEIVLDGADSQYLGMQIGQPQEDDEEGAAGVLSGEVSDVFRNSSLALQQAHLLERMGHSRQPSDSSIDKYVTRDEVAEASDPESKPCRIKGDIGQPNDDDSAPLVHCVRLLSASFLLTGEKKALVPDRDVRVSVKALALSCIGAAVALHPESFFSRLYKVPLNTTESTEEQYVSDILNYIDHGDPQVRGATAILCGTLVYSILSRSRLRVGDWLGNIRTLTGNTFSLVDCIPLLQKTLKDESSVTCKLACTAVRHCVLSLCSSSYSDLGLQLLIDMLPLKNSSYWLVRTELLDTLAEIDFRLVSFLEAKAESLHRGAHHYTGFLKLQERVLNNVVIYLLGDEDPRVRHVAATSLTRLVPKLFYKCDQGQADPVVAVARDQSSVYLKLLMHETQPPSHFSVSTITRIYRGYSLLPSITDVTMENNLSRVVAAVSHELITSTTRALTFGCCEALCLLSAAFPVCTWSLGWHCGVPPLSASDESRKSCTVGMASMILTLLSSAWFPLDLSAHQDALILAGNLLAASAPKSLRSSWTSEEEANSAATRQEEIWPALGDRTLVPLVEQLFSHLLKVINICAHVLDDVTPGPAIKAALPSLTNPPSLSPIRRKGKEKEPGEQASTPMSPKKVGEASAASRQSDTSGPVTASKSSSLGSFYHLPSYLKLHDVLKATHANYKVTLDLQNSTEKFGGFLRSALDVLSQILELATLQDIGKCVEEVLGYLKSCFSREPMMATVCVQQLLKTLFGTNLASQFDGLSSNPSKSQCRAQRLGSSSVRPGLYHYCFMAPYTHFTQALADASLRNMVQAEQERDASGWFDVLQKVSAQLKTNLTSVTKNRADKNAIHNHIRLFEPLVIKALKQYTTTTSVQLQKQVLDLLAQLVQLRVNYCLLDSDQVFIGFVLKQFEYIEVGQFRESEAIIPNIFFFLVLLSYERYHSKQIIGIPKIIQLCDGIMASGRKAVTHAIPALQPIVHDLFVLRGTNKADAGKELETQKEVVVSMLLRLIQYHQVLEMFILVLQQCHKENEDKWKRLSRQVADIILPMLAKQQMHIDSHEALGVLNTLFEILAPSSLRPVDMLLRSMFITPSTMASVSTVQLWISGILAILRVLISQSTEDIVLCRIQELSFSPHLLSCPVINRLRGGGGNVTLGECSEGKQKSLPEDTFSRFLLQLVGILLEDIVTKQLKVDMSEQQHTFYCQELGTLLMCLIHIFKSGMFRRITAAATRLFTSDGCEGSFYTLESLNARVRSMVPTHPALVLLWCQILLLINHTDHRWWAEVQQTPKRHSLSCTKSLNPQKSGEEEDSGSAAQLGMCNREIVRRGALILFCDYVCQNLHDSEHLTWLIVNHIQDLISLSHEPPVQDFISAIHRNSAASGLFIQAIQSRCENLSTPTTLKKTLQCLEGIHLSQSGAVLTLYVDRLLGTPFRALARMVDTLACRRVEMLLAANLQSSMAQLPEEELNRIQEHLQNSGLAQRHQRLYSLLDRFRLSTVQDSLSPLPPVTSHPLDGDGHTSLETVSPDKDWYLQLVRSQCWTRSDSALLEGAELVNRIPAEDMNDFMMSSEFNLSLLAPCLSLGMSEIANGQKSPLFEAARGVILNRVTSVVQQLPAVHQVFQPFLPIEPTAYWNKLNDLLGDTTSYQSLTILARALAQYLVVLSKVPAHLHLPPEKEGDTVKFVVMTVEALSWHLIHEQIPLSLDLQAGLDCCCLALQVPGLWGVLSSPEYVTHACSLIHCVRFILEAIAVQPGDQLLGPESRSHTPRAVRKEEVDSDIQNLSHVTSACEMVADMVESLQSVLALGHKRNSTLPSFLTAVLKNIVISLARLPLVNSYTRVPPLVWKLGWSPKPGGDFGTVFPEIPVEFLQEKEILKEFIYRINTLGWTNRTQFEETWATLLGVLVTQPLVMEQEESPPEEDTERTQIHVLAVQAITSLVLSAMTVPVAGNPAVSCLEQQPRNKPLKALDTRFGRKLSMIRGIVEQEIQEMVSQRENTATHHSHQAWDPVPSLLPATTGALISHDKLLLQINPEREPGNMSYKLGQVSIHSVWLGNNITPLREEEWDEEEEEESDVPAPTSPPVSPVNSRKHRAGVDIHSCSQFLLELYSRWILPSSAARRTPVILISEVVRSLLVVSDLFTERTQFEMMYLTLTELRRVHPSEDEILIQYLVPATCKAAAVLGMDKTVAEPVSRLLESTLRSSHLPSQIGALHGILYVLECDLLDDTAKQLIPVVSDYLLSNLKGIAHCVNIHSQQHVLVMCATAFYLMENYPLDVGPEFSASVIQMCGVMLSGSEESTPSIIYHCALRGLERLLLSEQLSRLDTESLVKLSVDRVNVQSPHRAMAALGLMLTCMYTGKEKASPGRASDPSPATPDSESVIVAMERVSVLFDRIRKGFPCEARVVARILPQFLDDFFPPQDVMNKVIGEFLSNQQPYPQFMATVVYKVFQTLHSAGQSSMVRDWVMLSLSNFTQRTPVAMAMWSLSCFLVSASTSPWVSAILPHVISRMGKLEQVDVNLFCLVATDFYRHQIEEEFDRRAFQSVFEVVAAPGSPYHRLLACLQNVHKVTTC", "assay": "Diffuse mHTT levels in heat shocked STHdh 111/111 striatal cells by immunocytochemistry", "conditions": "STHdh 111/111; in comparison to untreated cells"}},
  "note": "Entries after “also recorded” stand apart in the source; their conditions may differ.",
  "data": [
    {"compound": "Cc1[nH]c2ccc(C(=O)NCCN(C(C)C)C(C)C)cc2c1C", "note": "[Compound 22]", "values": [
      {"measurement": "penetration of the blood brain area in vivo", "setting": "[1]; male CD1 mice, 33.3 mg/kg body weight, 33.3 mg/kg", "value": "penetrates the blood brain area; also recorded: can penetrate the blood brain area in vivo"},
      {"measurement": "crossing of the blood brain barrier", "setting": "[1]; mouse, in vivo", "value": "can cross the blood brain barrier"},
      {"measurement": "viability at 10 µM", "setting": "STHdh 7/7 striatal cells", "value": 34.9, "unit": "%"},
      {"measurement": "autophagic flux", "setting": "LC3 (autophagic flux); STHdh 111/111, LC3 area with NH4Cl minus without NH4Cl", "value": "positive autophagic flux"},
      {"measurement": "LC3 stained area", "setting": "LC3 (autophagic flux); STHdh 111/111 neurons", "value": "decreased"},
      {"measurement": "Olig2 expression", "setting": "Olig2", "value": "doubled"},
      {"measurement": "NGFR expression increased by", "setting": "NGFR", "value": 60, "unit": "%"},
      {"measurement": "microsomal stability in humans in comparison to mice", "setting": "[2]", "value": 20, "unit": "times"},
      {"measurement": "Nuclear diffuse mHTT reduced by", "setting": "mHTT", "value": 32, "unit": "%"}
    ]}
  ]
}
